Measured values reported in US20220142955A1, “METHODS OF TREATING ORGANIC ACIDEMIAS” (HemoShear Therapeutics, Inc., priority 2019, published 2022).
Where two headings read alike, the source gives them in different places.

What was measured:
[1] = system: primary hepatocytes of propionic acidemia patients; experiment: Reduction of 13C-propionyl-CoA and accumulation of compound-CoA ester after 13C-isoleucine challenge (Example 1); assay type: cell-based; settings: Homo sapiens, Hepatocyte, 13C-labeled isoleucine, compound 0 μM to 1,000 μM
Description: Primary hepatocytes are isolated from explanted livers of propionic acidemia patients and are cultured on day 1 using standard protocols (see: Chapman et al. “Recapitulation of metabolic defects in a model of propionic acidemia using patient-derived primary hepatocytes” Mol. Genet. Metab. 2016, 117(3), 355-362). Approximately 2×10^5 hepatocytes are plated into each well of a collagen-coated 48-well tissue culture plate and pre-conditioned in a custom Modified Corning culture media for Hepatocells (Corning) without low levels of branched chain amino acids for 72 hours. On day 4, hepatocytes are treated with increasing doses of compound (0, 1, 3, 10, 30, 100, 300, 1000 μM) for 30 min. After 30 min the cells are challenged with ^13C-isoleucine (3 mM). At the end of the challenge period, cells are lysed in 100 μL of […] acetonitrile (MeCN) and 0.1% trifluoroacetic acid (TFA) containing 100 μM of ethymalonyl-CoA as an internal standard. Cells are removed from the well by scraping into the lysis buffer. The collected cellular samples are then dispensed into a microfuge tube. The plate wells are washed again with lysis buffer to ensure the remaining cells are dislocated from the well. All remaining collected cells are then moved into the centrifuge tube. The cellular samples are flash frozen in liquid nitrogen and stored at −80° C. To begin processing, the frozen cellular lysates are thawed on ice and vortexed. The samples are centrifuged at 20,000 g for 10 min at 4° C. and the total volume of supernatant is transferred to a no-bind 96-well plate on ice. The samples are dried under vacuum for about 2 hours and then resuspended in 150 μL of water in each well. Total volumes of samples are filtered through a prepared Durapore filter plate into a no-bind 96-well plate. The filtered samples are stored at −80° C. for HTMS/MS analysis.

[2] = system: primary hepatocytes of methylmalonic acidemia patients; experiment: Propionyl-CoA and methylmalonyl-CoA from various sources in MMA primary hepatocytes (Examples 4, 5); assay type: cell-based, human; settings: Homo sapiens, Hepatocyte
Description: Primary hepatocytes isolated from livers of methylmalonic acidemia patients are treated with increasing doses of compound 1 (0, 1, 3, 10, 30, 100, 300, 1000 μM) for 30 minutes. […] At the end of the challenge period, media is removed and the cells are lysed with 70% MCCN and 0.1% TFA containing 100 μM of ethymalonyl-CoA as an internal standard and harvested. Cell lysates are processed for HTMS/MS analysis.
Primary hepatocytes isolated from livers of methylmalonic acidemia patients are treated with increasing doses of compound 5 (0, 0.1, 0.3, 1, 3, 10, 30, 100 μM) for 30 min. […] At the end of the challenge period, media is removed and the cells are lysed with 70% MeCN and 0.1% TFA containing 100 μM of ethymalonyl-CoA as an internal standard and harvested. Cell lysates are processed for HTMS/MS analysis.

MMA primary hepatocytes = experiment: Static cell culture, low/high propiogenic media, MMA primary hepatocytes; assay type: cell-based, human; settings: MMA pHeps; for EC50 / EC90: Homo sapiens, Hepatocyte
Description: Unlike the HemoShear Technology, this assay is carried out without constant perfusion, utilizing cell culture media that was customized to mimic plasma levels of propiogenic sources (amino acids and ketoacids) in PA and MMA patients during periods of relative metabolic stability (low propiogenic media) and acute metabolic crisis (high propiogenic media). PA and MMA pHeps, in static cell culture, were treated with Compound 5 (concentrations ranging from 0.1 μM to 100 μM) for 30 minutes in low propiogenic media, followed by either a continuation of low propiogenic media or a switch to the high propiogenic media for 1 hour. The media used during the 1-hour incubation contained propiogenic SIL amino acids and ketoacids which are metabolized into labeled P-CoA and M-CoA in the cells. The SIL amino acids and ketoacids were a mix of ^13C and MeD8 labelling, but their catabolism produced a SIL P-CoA (denoted as ^13C-P-CoA for simplicity) with the same mass, independent of the type of SIL (also true for ^13C-M-CoA).

[3] = high propiogenic, static culture
[4] = low propiogenic, static culture

SMILES: CCC(C)(C)C(=O)O [Compound 5, 2,2-dimethybutanoic acid]
- EC50 ([1]; read-out: concentration of 12C-Compound-CoA ester EC50): 0.95 µM
- EC50 ([1]; read-out: concentration of 13C-propionyl-CoA EC50): 0.43 µM
- EC50 ([2]; 100 μM 13C-heptanoate, read-out: concentration of methylmalonyl-CoA EC50): 0.02 µM
- EC50 ([2]; 100 μM 13C-heptanoate, read-out: concentration of propionyl-CoA EC50): 3.84 µM
- EC50 ([2]; 1 mM 13C-KIVA, read-out: concentration of methylmalonyl-CoA EC50): 1.17 µM
- EC50 ([2]; 1 mM 13C-KIVA, read-out: concentration of propionyl-CoA EC50): 0.93 µM
- EC50 ([2]; 3 mM 13C-ILE, read-out: concentration of methylmalonyl-CoA EC50): 1.38 µM
- EC50 ([2]; 3 mM 13C-ILE, read-out: concentration of propionyl-CoA EC50): 2.04 µM
- EC50 (MMA primary hepatocytes; high propiogenic media, static, read-out: 12C-Methylmalonyl-CoA (13C-M-CoA) EC50): 2.7 ± 1.6 µM
- EC90 (MMA primary hepatocytes; high propiogenic media, static, read-out: 12C-Methylmalonyl-CoA (13C-M-CoA) EC90): 21.2 ± 2 µM
- EC50 (MMA primary hepatocytes; high propiogenic media, static, read-out: 13C-Methymalonic acid EC50): 1.1 ± 0.9 µM
- EC90 (MMA primary hepatocytes; high propiogenic media, static, read-out: 13C-Methymalonic acid EC90): 4.6 ± 3 µM
- EC50 (MMA primary hepatocytes; high propiogenic media, static, read-out: 13C-Propionyl-CoA (13C-P-CoA) EC50): 1.6 ± 0.8 µM
- EC90 (MMA primary hepatocytes; high propiogenic media, static, read-out: 13C-Propionyl-CoA (13C-P-CoA) EC90): 48.2 ± 47.5 µM
- EC50 (MMA primary hepatocytes; high propiogenic, static culture, read-out: 12C-Acetyl-CoA EC50): 1.4 ± 1.4 µM
- EC90 (MMA primary hepatocytes; high propiogenic, static culture, read-out: 12C-Acetyl-CoA EC90): 6.4 ± 7.1 µM
- EC50 (MMA primary hepatocytes; high propiogenic, static culture, read-out: CoASH EC50): 13.1 ± 14.8 µM
- EC90 (MMA primary hepatocytes; high propiogenic, static culture, read-out: CoASH EC90): 65.6 ± 81.2 µM
- EC50 (MMA primary hepatocytes; high propiogenic, static culture, read-out: Compound 5-CoA (formation) EC50): 5.4 ± 2.8 µM
- EC90 (MMA primary hepatocytes; high propiogenic, static culture, read-out: Compound 5-CoA (formation) EC90): 80.1 ± 57 µM
- EC50 (MMA primary hepatocytes; low propiogenic media, static, read-out: 12C-Methylmalonyl-CoA (13C-M-CoA) EC50): 2.9 ± 1.6 µM
- EC90 (MMA primary hepatocytes; low propiogenic media, static, read-out: 12C-Methylmalonyl-CoA (13C-M-CoA) EC90): 30.9 ± 16.2 µM
- EC50 (MMA primary hepatocytes; low propiogenic media, static, read-out: 13C-Methymalonic acid EC50): 1.2 ± 1.3 µM
- EC90 (MMA primary hepatocytes; low propiogenic media, static, read-out: 13C-Methymalonic acid EC90): 5.2 ± 3.3 µM
- EC50 (MMA primary hepatocytes; low propiogenic media, static, read-out: 13C-Propionyl-CoA (13C-P-CoA) EC50): 1.3 ± 0.6 µM
- EC90 (MMA primary hepatocytes; low propiogenic media, static, read-out: 13C-Propionyl-CoA (13C-P-CoA) EC90): 15.7 ± 18 µM
- EC50 (MMA primary hepatocytes; low propiogenic, static culture, read-out: 12C-Acetyl-CoA EC50): 2.5 ± 2.6 µM
- EC90 (MMA primary hepatocytes; low propiogenic, static culture, read-out: 12C-Acetyl-CoA EC90): 28.4 ± 52 µM
- EC50 (MMA primary hepatocytes; low propiogenic, static culture, read-out: CoASH EC50): 2.3 ± 1.6 µM
- EC90 (MMA primary hepatocytes; low propiogenic, static culture, read-out: CoASH EC90): 14.2 ± 13.5 µM
- EC50 (MMA primary hepatocytes; low propiogenic, static culture, read-out: Compound 5-CoA (formation) EC50): 2 ± 0.7 µM
- EC90 (MMA primary hepatocytes; low propiogenic, static culture, read-out: Compound 5-CoA (formation) EC90): 18 ± 15.7 µM
- 12C-Methylmalonyl-CoA (13C-M-CoA) % change at 30 μM (MMA primary hepatocytes; high propiogenic media, static): −73±5.8%
- 13C-Methymalonic acid % change at 30 μM (MMA primary hepatocytes; high propiogenic media, static): −91 ± 4%
- 13C-Propionyl-CoA (13C-P-CoA) % change at 30 μM (MMA primary hepatocytes; high propiogenic media, static): −75.9±7.3%
- 12C-Acetyl-CoA Percent change (30 μM) (MMA primary hepatocytes; [3]): −14.6 ± 12.6%
- CoASH Percent change (30 μM) (MMA primary hepatocytes; [3]): −28.7 ± 7.3%
- 12C-Methylmalonyl-CoA (13C-M-CoA) % change at 30 μM (MMA primary hepatocytes; low propiogenic media, static): −76.5±13.2%
- 13C-Methymalonic acid % change at 30 μM (MMA primary hepatocytes; low propiogenic media, static): −83.2 ± 5%
- 13C-Propionyl-CoA (13C-P-CoA) % change at 30 μM (MMA primary hepatocytes; low propiogenic media, static): −77.6±9.8%
- 12C-Acetyl-CoA Percent change (30 μM) (MMA primary hepatocytes; [4]): −35.5 ± 18.1%
- CoASH Percent change (30 μM) (MMA primary hepatocytes; [4]): −47.7 ± 13.4%
